The text below walks through data of a melting point compilation (Tetko et al.; mined from patent text by program, amines drawn as free bases though some values may be those of a salt).

The term melting point denotes the temperature of the solid-liquid transition. Consider `CS(=O)(=O)NCCn1nnnc1S`, for which the melting point lay within 131 to 132 °C.
The molecule `C[C@H](NC(=O)OCc1ccccc1)C(=O)N1CCC[C@H]1C(=O)NC1CCCCCC1` yielded a melting point of 110 to 113 °C.
Then `O=S(=O)(CCCCl)Nc1ccc(N2CCN(c3ccc(OCC(O)(Cn4cncn4)c4ccc(Cl)cc4Cl)cc3)CC2)cc1` (stereo unspecified), with 80 to 81 °C; and `Oc1ccc(Cc2ccccc2)c2cccnc12`, with 112 to 113 °C.
As for `CC(C)C(=O)Nc1nc(Cl)c([N+](=O)[O-])c(Cl)n1`, the melting point is 166 to 169 °C.
`Oc1ccc2nc(-c3ccc(O)c(F)c3)cc(-c3ccc(C(F)(F)F)cc3)c2c1` returned a melting point of 299 to 300 °C.
`CC(=O)OC(c1ccc(Cl)c(Cl)c1)C(Cl)(Cl)Cl` (stereo unspecified) registered a melting point of 85 to 86 °C.
Take `CCOCCOc1ccc(-c2nc(=O)c3ccccc3s2)cn1`: the melting point was in the range of 93.6 to 94.9 °C.
Regarding `COc1nc(C)c(C(C)=O)cc1NC(=O)N1CCN(c2cccc(C)c2C)CC1`, the melting point is 173 to 174 °C.
Then `COC(=O)c1ccccc1OCCCn1c(C(=O)C2CCN(CCC3(c4ccccc4)CCN(C(=O)c4cc(OC)c(OC)c(OC)c4)C3)CC2)nc2ccccc21` (stereo unspecified), with 74 to 80 °C; and `CCCn1c(=O)c2[nH]c(-c3cc(C)n(CC(=O)Nc4ccc(Cl)c(Cl)c4)n3)nc2n(CCC)c1=O`, with 298 °C.
Turning to `CC1CC2C3CC(Cl)C4=CC(=O)C=CC4(C)C3(Cl)C(O)CC2(C)C1C(=O)COC(=O)C(C)(C)C` (stereo unspecified), the melting point was determined as 238 °C.
The molecule `CCOC(=O)c1cccc2nc3cc(C(=O)c4ccccc4)ccc3nc12` came in with a melting point of 115 to 116 °C.
Turning to `CNC(=O)N1CCc2[nH]cnc2C1c1ccco1` (stereo unspecified), the melting point came to 205 °C.
As to `BrCc1ccc(-c2ccc(CBr)cn2)nc1`, the melting point was 188 °C.
On to `Cc1cc(-c2ccc3c(C(N)=O)nn(-c4ccc(S(N)(=O)=O)cc4)c3c2)ccc1F`, for which the melting point lay within 300 to 302 °C.
`COC(=O)C1=C(C(OC)OC)NC(C)=C(P2(=O)OCCCO2)C1c1ccccc1[N+](=O)[O-]` (stereo unspecified) showed a melting point of 174 to 176 °C.
For `CCCCCCCCCCC=CCc1c[nH]c(C=O)c1` the value was 29 to 32 °C; for `COC(=O)/C=C/c1occc(=O)c1OCC(=O)OC(C)(C)C`, 115 to 116 °C; for `Clc1ccc(-c2cccs2)cn1`, 124 to 126 °C.
For `CC(C)(c1ccc(O)cc1)c1ccc(O)c(C(C)(C)c2ccc(O)cc2)c1` the value was 190 °C; for `CCOC(=O)CCn1c(C(=O)NC(N)=S)cc2ccccc21`, 160 to 162 °C.
Take `O=Cc1c[nH]cc1-c1cccc(Cl)c1Cl`: the melting point is 152 to 154 °C.
Then `CC(=O)Nc1cc2c(cc1[N+](=O)[O-])OC(C)(C)[C@@H](O)[C@@H]2N` (relative stereo), with 258 to 261 °C.
Then `COc1cccc2c1CCC(C#N)=C2`, with 47 to 49 °C.
Then `Cc1ccc(Cl)c(OCC(O)CNCCNC(=O)NCCCO[N+](=O)[O-])c1` (stereo unspecified), with 109 to 111 °C; and `COc1ccc(C(=O)O)c2cc(C3CCCC3)oc12`, with 170 to 171 °C.
On to `CS(=O)(=O)Cc1cnc2ccsc2c1O`, for which the melting point was > 300 °C.
As for `CCOC(=O)c1oc2ccc(Cl)cc2c1O`, the melting point was 100 to 102 °C.
With `CSc1ncc(C(=O)NC2CC2)c(Nc2ccc3cn[nH]c3c2)n1`, the melting point is > 270 °C.
On to `CN1CCN(CCOc2ccc([C@H]3c4ccc(OCc5ccccc5)cc4OC[C@H]3c3ccccc3)cc2)CC1` (racemic), for which the melting point lay within 103 to 107 °C.
Regarding `O=C(C[C@@H](CCCC1CCCCC1)c1nc(CNC2CCC2)no1)NO`, the melting point was 82 to 83.9 °C.
Molecule `CCONS(=O)(=O)c1ccc(C)cc1` showed a melting point of 94 to 95 °C.
In turn, `O=C(NCCCSc1ccncc1)c1cccs1` yielded a melting point of 112 to 113 °C.
`CCCn1nnn(-c2cc(OCC#CI)c(Cl)cc2Cl)c1=O` had a melting point of 134 to 138 °C.
In turn, `CCCCCC(=O)C=Cc1ccc(CCCCCCCC(=O)O)o1` registered a melting point of 58 to 59 °C.
